Data reported in US11396501B2, “Heteroaryl compounds as CXCR4 inhibitors, composition and method using the same” (CGENETECH (SUZHOU, CHINA) CO., LTD., priority 2017, dated 2022).

biological target: CXCR4 (Homo sapiens, UniProt P61073); experiment: HPB-ALL CXCR4 competitive binding assay (12G5 binding assay); set-up: HPB-ALL cells were maintained in RPMI-1640 (Gibico) supplemented with 10% FBS (Hyclone); endogenous in cells; host or cells: HPB-ALL cells; conditions: HPB-ALL cells; competition with APC-conjugated anti-human CXCR4 clone 12G5 at its EC80; 4° C. for 3 h; FACS
Procedure: HPB-ALL CXCR4 Competitive Binding Assay
HPB-ALL cells were maintained in RPMI-1640 (Gibico) supplemented with 10% FBS (Hyclone). APC-conjugated anti-human CXCR4 was from Sungene. EC80 was first determined for 12G5 binding to CXCR4. Then the compounds for testing were added into 96-well plates serially diluted at a ratio of 1:3. Cells were washed once with ice-cold assay buffer (DPBS+2% HI-FBS) and then re-suspended in the same buffer at a final concentration of 1×10^6/mL. Cell suspension was then added into the wells and with the addition of APC-conjugated anti-human CXCR4 clone 12G5 at its EC80 determined. The mix of cell, compounds and APC-conjugated anti-human CXCR4 were incubated at 4° C. for 3 h before addition of 100 μL of 4% PFA. Cells were then washed once and resuspended in assay buffer and examined by FACS. The percent (%) effect at each concentration of compound was calculated and relative to the amount of calcium produced in the positive and negative control wells contained within each assay plate. The concentrations and % effect values for tested compounds were plotted and the concentration of compound required for 50% effect (IC50) was determined. Tables 2 summarize results of the CXCR4 competitive binding assay for selected compounds disclosed in the present disclosure. FIGS. 1-2 depict the IC50 curves of compounds A42 and A43.

CXCR4, sequence (P61073 whole entry): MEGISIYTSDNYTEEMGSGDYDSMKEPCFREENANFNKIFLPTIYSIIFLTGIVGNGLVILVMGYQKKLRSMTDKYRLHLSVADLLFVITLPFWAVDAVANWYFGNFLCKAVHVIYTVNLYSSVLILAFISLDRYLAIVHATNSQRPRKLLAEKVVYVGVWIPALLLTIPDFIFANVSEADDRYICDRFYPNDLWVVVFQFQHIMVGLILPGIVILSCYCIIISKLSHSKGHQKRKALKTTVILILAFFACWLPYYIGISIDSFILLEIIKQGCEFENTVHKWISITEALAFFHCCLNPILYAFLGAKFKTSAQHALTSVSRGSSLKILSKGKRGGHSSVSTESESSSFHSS

Point of comparison: `CSc1nc(CN2CCCCC2c2ccccn2)cc(N2CCN(C)CC2)n1` (centres unmarked) [Compound C18], IC50 429 nM. Against it:
- Cc1nc(CN(C)[C@H](C)c2ccccn2)cc(N2CCN(C)CC2)n1 [Compound A76] — 1.9-fold lower, 220 nM
- Cc1nc(CN(C)C2CCCc3cccnc32)c(C#N)c(N2CCN(C)CC2)n1 (centres unmarked) [Compound A77] — 48-fold lower, 9 nM
- CN1CCN(c2cc(N(C)CC3CCCc4cccnc43)ncn2)CC1 (centres unmarked) [Compound B1] — higher, > 10000 nM
- CN(C)c1ncc(CN(C)C2CCCc3cccnc32)c(NCCNC(=O)OC(C)(C)C)n1 (centres unmarked) [Compound B7, reference compound] — higher, > 10000 nM
- CN(C)c1ncc(CN(C)C2CCCc3cccnc32)c(NCCN)n1 (centres unmarked) [Compound B8, reference compound] — higher, > 10000 nM
- CSc1nc([C@H]2CCCN2[C@H]2CCCc3cccnc32)cc(N2CCN(C)CC2)n1 [Compound C1] — 4.6-fold lower, 93 nM
- CSc1nc([C@@H]2CCCN2[C@@H]2CCCc3cccnc32)cc(N2CCN(C)CC2)n1 [Compound C4] — 5.4-fold higher, 2320 nM
- Cc1nc([C@H]2CCCN2[C@H]2CCCc3cccnc32)cc(N2CCN(C)CC2)n1 [Compound C5] — 21-fold lower, 20 nM
- Cc1nc([C@H]2CCCCN2[C@H]2CCCc3cccnc32)cc(N2CCN(C)CC2)n1 [Compound C6] — 7.6-fold higher, 3240 nM
- Cc1nc([C@@H]2CCCCN2[C@@H]2CCCc3cccnc32)cc(N2CCN(C)CC2)n1 [Compound C8] — 16-fold higher, 6960 nM
- CSc1nc(CN2CCCCC2c2ccccn2)cc(N2CCN(C)CC2)n1 (centres unmarked) [Compound C10] — 1.7-fold lower, 248 nM
- CSc1nc(CN2CCCC2c2ccccn2)cc(N2CCN(C)CC2)n1 (centres unmarked) [Compound C11] — 3-fold lower, 142 nM
- Cc1nc(CN2CCCC2c2ccccn2)cc(N2CCN(C)CC2)n1 (centres unmarked) [Compound C12] — 2.6-fold lower, 165 nM
- Cc1nc([C@H]2CCN2[C@H]2CCCc3cccnc32)cc(N2CCN(C)CC2)n1 [Compound C13] — 6.9-fold lower, 62 nM
- Cc1nc([C@H]2CCN2[C@@H]2CCCc3cccnc32)cc(N2CCN(C)CC2)n1 [Compound C14] — 19-fold higher, 8110 nM
- Cc1nc([C@H]2C[C@@H](O[Si](C)(C)C(C)(C)C)CN2[C@H]2CCCc3cccnc32)cc(N2CCN(C)CC2)n1 [Compound C15] — within 1.5-fold, 500 nM
- Cc1nc([C@H]2C[C@@H](O)CN2[C@H]2CCCc3cccnc32)cc(N2CCN(C)CC2)n1 [Compound C16, (3R,5R)-5-(2-methyl-6-(4-methylpiperazin-1-yl)pyrimidin-4-yl)-1-((S)-5,6,7,8-tetrahydroquinolin-8-yl)pyrrolidin-3-ol] — 55-fold lower, 7.74 nM
- Cc1nc([C@H]2CC(F)(F)CN2[C@H]2CCCc3cccnc32)cc(N2CCN(C)CC2)n1 [Compound C19] — 4-fold higher, 1710 nM
- CO[C@@H]1C[C@H](c2cc(N3CCN(C)CC3)nc(C)n2)N([C@H]2CCCc3cccnc32)C1 [Compound C21] — 5.2-fold lower, 82 nM
- Cc1nc(CN2CCC[C@H]2c2ccccn2)cc(N2CCN(C)CC2)n1 [Compound C23] — 3-fold lower, 144 nM
- Cc1nc(CN2CCC[C@H]2c2ncccc2C)cc(N2CCN(C)CC2)n1 [Compound C25] — 6.3-fold lower, 68 nM
- Cc1ccnc([C@@H]2CCCN2Cc2cc(N3CCN(C)CC3)nc(C)n2)c1 [Compound C26] — 2.1-fold lower, 206 nM
- Cc1ccc([C@@H]2CCCN2Cc2cc(N3CCN(C)CC3)nc(C)n2)nc1 [Compound C27] — 1.5-fold lower, 279 nM
- Cc1cccc([C@@H]2CCCN2Cc2cc(N3CCN(C)CC3)nc(C)n2)n1 [Compound C28] — 5.3-fold higher, 2280 nM
- Cc1nc(CN2CCC(C)C2c2ccccn2)cc(N2CCN(C)CC2)n1 (centres unmarked) [Compound C29] — 2.8-fold higher, 1200 nM
